# Key:
# GST-STAT3 = experiment: Pull-down assay, GST-STAT3 with peptide; format: binding; conditions: GST-STAT3 incubated with C16 or SC for 2 h; Anti-His magnetic beads
# Description: (§1) Figure 7 Peptide derived from the STAT3‐binding sites of SHF is an effective GBM suppressive strategy. A) Binding model between SHF and STAT3 using ZDOCK server. […] B) IF staining determined the cell penetrability and nuclear‐localization of C16. U251 cells were incubated with C16 or SC for 2 h and performed IF staining using the indicated antibodies. Bars, 10 µm. C) The statical analysis of adsorption equilibrium assay detecting the binding of C16 and SC with recombinant STAT3. D) Pull‐down assay indicating C16 binds STAT3. GST‐STAT3 was incubated with C16 or SC for 2 h, and the pull‐down assay was performed using Anti‐His magnetic beads. E) IP assay showing the effect of C16 on STAT3 dimerization. 293T cells transfected with indicated vectors were incubated with C16 for 2 h. The relative quantification of STAT3 dimerization was listed. F) IP assay detecting the effect of C16 on the interaction of STAT3 and DNMT1. […] The relative quantification of STAT3/DNMT1 interaction was listed. […] The relative quantification of STAT3/DNMT1 interaction was listed. […] Positive cells were quantified 20 randomly selected fields per mouse (n = 6, Student's t‐test, **p < 0.01). […]
# (§2) Immunoprecipitation (IP) experiments were performed to analyze the protein interactions. […] Precipitated products were analyzed by Western blot using the specified antibodies. […]
# STAT3/DNMT1 interaction = experiment: IP assay: endogenous STAT3/DNMT1 interaction in U87 cells; format: cell-based, human; conditions: C16 for 2 h, n = 3, p < 0.01
# Description: as §1, §2
# [1] = system: intracranial U87 xenograft in nude mice; experiment: Intracranial U87 xenograft tumor growth, bioluminescence; format: in vivo, mouse; conditions: female nude mice, 10 µg i.p. once every 2 days from third day after implantation; vs SC; n = 6, p < 0.01
# Text: (§3) Considering that the SH2 domain predominantly represents the inhibition of SHF on STAT3 dimerization and activity, we speculated that this domain may be an optional target for GBM suppression. To this end, we analyzed the mechanical interaction of SHF and STAT3. The structures of human SHF (aa265‐421) and STAT3 (aa130‐715). both of which spanned their respective SH2 domain. were simulated by Swiss‐Model server (https://swissmodel.expasy.org/). To simulate the interaction of SHF and STAT3, Discovery studio 2018 was employed to complete protein‐protein docking using ZDOCK as an initial stage. A rigid body molecular docking algorithm utilizing a fast Fourier transform (FFT) algorithm was used to further improve performance for searching in translational space. […] Next, we determined the implication of C16 in tumor inhibition. […] A concentration of 25 uM was determined to be adequate for use in the subsequent experiments. […]
# (§4) Figure 7 Peptide derived from the STAT3‐binding sites of SHF is an effective GBM suppressive strategy. […] B) IF staining determined the cell penetrability and nuclear‐localization of C16. […] The relative quantification of STAT3 dimerization was listed. […] The relative quantification of STAT3/DNMT1 interaction was listed. […] The relative quantification of STAT3/DNMT1 interaction was listed. […]
# [2] = system: U87 xenograft tumor cell proliferation; experiment: EdU incorporation in intracranial U87 xenografts; format: in vivo, mouse; conditions: 10 µg i.p. once every 2 days; EdU 24 h prior to sacrifice; vs SC; n = 6, p < 0.01
# Text: as §3, §4
substance,measurement,setting,value
"C16: peptide spanning SHF amino acids 388–421, palmitic acid at the N-terminus, amidated C-terminus, 3× His tags added to the C-terminal (PFSSVPEIVHHYASRKLPIKGAEHMSLLYPVAIR; palmitic acid at the N-terminus; amidated C-terminus; left off: 3× His tags, C-terminal, kept)",STAT3 binding in pull-down / in vitro IP,GST-STAT3,contains the STAT3 binding capacity
same,endogenous STAT3/DNMT1 interaction,STAT3/DNMT1 interaction,decrease
same,growth of intracranial tumors,[1],potently inhibited the growth of intracranial tumors
same,EdU positive cells in xenografts,[2],significantly decreased

# Reference: PMC9475553, “SHF Acts as a Novel Tumor Suppressor in Glioblastoma Multiforme by Disrupting STAT3 Dimerization” (Advanced Science, 2022)
